Measurements: patent US9914730B2, “Azaquinazoline inhibitors of Atypical protein Kinase C” (Ignyta, Inc., priority 2012, dated 2018)

Target: T1, full-length human PKCι (Homo sapiens, UniProt P41743)
T1 construct: Recombinant, full-length human PKCι expressed in Sf21 insect cells is also commercially available; purchased; host or cells: Sf21 insect cells
T1 sequence (P41743 1-596): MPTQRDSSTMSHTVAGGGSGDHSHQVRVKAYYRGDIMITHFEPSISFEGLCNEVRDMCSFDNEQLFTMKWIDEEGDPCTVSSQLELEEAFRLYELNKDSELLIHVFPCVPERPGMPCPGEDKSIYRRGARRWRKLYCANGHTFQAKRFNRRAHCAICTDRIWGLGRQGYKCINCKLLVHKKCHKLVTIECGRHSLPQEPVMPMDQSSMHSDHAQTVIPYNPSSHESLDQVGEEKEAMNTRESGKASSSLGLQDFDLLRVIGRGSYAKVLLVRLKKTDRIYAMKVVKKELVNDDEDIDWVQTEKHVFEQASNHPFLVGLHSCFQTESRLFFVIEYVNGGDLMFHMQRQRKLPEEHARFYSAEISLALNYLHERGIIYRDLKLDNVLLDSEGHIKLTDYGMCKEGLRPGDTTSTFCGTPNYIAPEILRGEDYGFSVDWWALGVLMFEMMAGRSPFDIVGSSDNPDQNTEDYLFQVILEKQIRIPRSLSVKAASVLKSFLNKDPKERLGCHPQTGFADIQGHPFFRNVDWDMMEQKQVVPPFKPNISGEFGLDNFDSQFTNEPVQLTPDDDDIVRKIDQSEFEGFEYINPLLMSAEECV
Experiment: PKCι IC50 IMAP assay, full-length PKCι at 150 μM ATP
Format: biochemical
Conditions: read-out: IC50 in IMAP assay against full length PKCi at 150 μM ATP
How it was run: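 Full-length human PKCι from Sf21 cells, typically 15 pM, with 100 nM 5FAM-PKCε pseudosubstrate peptide and 150 μM ATP (5× apparent KM), 60 min at room temperature, 4% DMSO. IMAP fluorescence polarisation read-out; inhibition normalised to no-compound and no-enzyme controls, IC50 from curve fit.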

| IC50 | SMILES |
| --- | --- |
| 0.1 to 1 µM | COc1cncc2nc(-c3ccncc3)nc(N3CCC(N)(C(=O)N[C@@H](CCO)c4ccc(Cl)cc4)CC3)c12 [Example 154, 4-Amino-1-(5-methoxy-2-pyridin-4-yl-pyrido[3,4-d]pyrimidin-4-yl)-piperidine-4-carboxylic acid [(S)-1-(4-chloro-phenyl)-3-hydroxy-propyl]-amide] |
| 1 to 10 µM | COC(=O)C1CN(c2nc(-c3ccncc3)nc3cncc(OC)c23)CCN1 (stereo not drawn) [Example 155, 4-(5-Methoxy-2-pyridin-4-yl-pyrido[3,4-d]pyrimidin-4-yl)-piperazine-2-carboxylic acid methyl ester] |
| 1 to 10 µM | COc1cncc2nc(-c3ccncc3)nc(N3CCNC(C(=O)Nc4ccccc4)C3)c12 (stereo not drawn) [Example 156, 4-(5-Methoxy-2-pyridin-4-yl-pyrido[3,4-d]pyrimidin-4-yl)-piperazine-2-carboxylic acid phenylamide] |
| 1 to 10 µM | COc1cncc2nc(-c3ccncc3)nc(N3CCNC(C(=O)NCc4ccccc4)C3)c12 (stereo not drawn) [Example 157, 4-(5-Methoxy-2-pyridin-4-yl-pyrido[3,4-d]pyrimidin-4-yl)-piperazine-2-carboxylic acid benzylamide] |
| 1 to 10 µM | COc1cncc2nc(-c3ccncc3)nc(N3CCNC(C(=O)NCCc4ccccc4)C3)c12 (stereo not drawn) [Example 158, 4-(5-Methoxy-2-pyridin-4-yl-pyrido[3,4-d]pyrimidin-4-yl)-piperazine-2-carboxylic acid phenethyl-amide] |
| 10 to 40 µM | CCCc1nccc2c(N3CCNCC3)nc(-c3ccncc3)nc12 [Example 159, 4-piperazin-1-yl-8-propyl-2-pyridin-4-yl-pyrido[3,4-d]pyrimidine] |
| 10 to 40 µM | Cc1nccc2c(N3CCNCC3)nc(-c3ccncc3)nc12 [Example 160, 8-Methyl-4-piperazin-1-yl-2-pyridin-4-yl-pyrido[3,4-d]pyrimidine] |
| < 0.1 µM | COc1cncc2nc(-c3ccnc(Nc4ccccc4)c3)nc(N3CCNCC3)c12 [Example 200, [4-(5-Methoxy-4-piperazin-1-yl-pyrido[3,4-d]pyrimidin-2-yl)-pyridin-2-yl]-phenyl-amine] |
| < 0.1 µM | COc1cncc2nc(-c3ccnc(Nc4cnccn4)c3)nc(N3CCNCC3)c12 [Example 201, [4-(5-Methoxy-4-piperazin-1-yl-pyrido[3,4-d]pyrimidin-2-yl)-pyridin-2-yl]-pyrazin-2-yl-amine] |
| < 0.1 µM | COc1cncc2nc(-c3ccnc(Nc4nc(C(F)(F)F)co4)c3)nc(N3CCNCC3)c12 [Example 202, [4-(5-Methoxy-4-piperazin-1-yl-pyrido[3,4-d]pyrimidin-2-yl)-pyridin-2-yl]-(4-trifluoromethyl-oxazol-2-yl)-amine] |
| < 0.1 µM | COc1cncc2nc(-c3ccnc(Nc4nc(C)c(C)o4)c3)nc(N3CCNCC3)c12 [Example 203, (4,5-Dimethyl-oxazol-2-yl)-[4-(5-methoxy-4-piperazin-1-yl-pyrido[3,4-d]pyrimidin-2-yl)-pyridin-2-yl]-amine] |
| < 0.1 µM | COc1cncc2nc(-c3ccnc(Nc4nc(C5CC5)cs4)c3)nc(N3CCNCC3)c12 [Example 204, (4-Cyclo-propyl-thiazol-2-yl)-[4-(5-methoxy-4-piperazin-1-yl-pyrido[3,4-d]pyrimidin-2-yl)-pyridin-2-yl]-amine] |
| 0.1 to 1 µM | COc1cncc2nc(-c3ccnc(Nc4cccc(C#N)c4)c3)nc(N3CCNCC3)c12 [Example 205, 3-[4-(5-Methoxy-4-piperazin-1-yl-pyrido[3,4-d]pyrimidin-2-yl)-pyridin-2-ylamino]-benzonitrile] |
| < 0.1 µM | COc1cncc2nc(-c3ccnc(Nc4ccccc4F)c3)nc(N3CCNCC3)c12 [Example 206, (2-Fluoro-phenyl)-[4-(5-methoxy-4-piperazin-1-yl-pyrido[3,4-d]pyrimidin-2-yl)-pyridin-2-yl]-amine] |
| 0.1 to 1 µM | COc1cncc2nc(-c3ccnc(Nc4ccc(C(F)(F)F)cc4)c3)nc(N3CCNCC3)c12 [Example 207, [4-(5-Methoxy-4-piperazin-1-yl-pyrido[3,4-d]pyrimidin-2-yl)-pyridin-2-yl]-(4-trifluoromethyl-phenyl)-amine] |
| < 0.1 µM | COc1cncc2nc(-c3ccnc(N)c3)nc(N3CCNCC3)c12 [Example 208, 4-(5-Methoxy-4-piperazin-1-yl-pyrido[3,4-d]pyrimidin-2-yl)-pyridin-2-ylamine] |
| 0.1 to 1 µM | COc1cncc2nc(-c3ccnc(NC(=O)CN4CCOCC4)c3)nc(N3CCNCC3)c12 [Example 209, N-[4-(5-Methoxy-4-piperazin-1-yl-pyrido[3,4-d]pyrimidin-2-yl)-pyridin-2-yl]-2-morpholin-4-yl-acetamide] |

| IC50 | SMILES |
| --- | --- |
| 0.1 to 1 µM | COc1cncc2nc(-c3ccnc(NC(=O)CN4CCCCC4)c3)nc(N3CCNCC3)c12 [Example 210, N-[4-(5-Methoxy-4-piperazin-1-yl-pyrido[3,4-d]pyrimidin-2-yl)-pyridin-2-yl]-2-piperidin-1-yl-acetamide] |
| < 0.1 µM | COc1cncc2nc(-c3ccnc(Nc4ccncn4)c3)nc(N3CCNCC3)c12 [Example 211, [4-(5-Methoxy-4-piperazin-1-yl-pyrido[3,4-d]pyrimidin-2-yl)-pyridin-2-yl]-pyrimidin-4-yl-amine] |
| < 0.1 µM | COc1cncc2nc(-c3ccnc(NC(=O)c4ccccc4)c3)nc(N3CCNCC3)c12 [Example 212, N-[4-(5-Methoxy-4-piperazin-1-yl-pyrido[3,4-d]pyrimidin-2-yl)-pyridin-2-yl]-benzamide] |
| 0.1 to 1 µM | CNc1cc(-c2nc(N3CCNCC3)c3c(OC)cncc3n2)ccn1 [Example 213, [4-(5-Methoxy-4-piperazin-1-yl-pyrido[3,4-d]pyrimidin-2-yl)-pyridin-2-yl]-methyl-amine] |
| < 0.1 µM | COc1cncc2nc(-c3ccnc(NC(C)=O)c3)nc(N3CCNCC3)c12 [Example 214, N-[4-(5-Methoxy-4-piperazin-1-yl-pyrido[3,4-d]pyrimidin-2-yl)-pyridin-2-yl]-acetamide] |
| 0.1 to 1 µM | COc1cncc2nc(-c3ccnc(NC(C)=O)c3)nc(N3CCC(O)CC3)c12 [Example 215, N-{4-[4-(4-Hydroxy-piperidin-1-yl)-5-methoxy-pyrido[3,4-d]pyrimidin-2-yl]-pyridin-2-yl}-acetamide] |
| < 0.1 µM | COc1cncc2nc(-c3ccnc(NC(=O)C4CC4)c3)nc(N3CCNCC3)c12 [Example 216, Cyclo-propane-carboxylic acid[4-(5-methoxy-4-piperazin-1-yl-pyrido[3,4-d]pyrimidin-2-yl)-pyridin-2-yl]-amide] |
| 0.1 to 1 µM | COc1cncc2nc(-c3ccnc(NC(=O)C(C)(C)C)c3)nc(N3CCNCC3)c12 [Example 217, N-[4-(5-Methoxy-4-piperazin-1-yl-pyrido[3,4-d]pyrimidin-2-yl)-pyridin-2-yl]-2,2-dimethyl-propionamide] |
| < 0.1 µM | COc1cncc2nc(-c3ccnc(NC(=O)C4CCOCC4)c3)nc(N3CCNCC3)c12 [Example 218, Tetrahydro-pyran-4-carboxylic acid[4-(5-methoxy-4-piperazin-1-yl-pyrido[3,4 d]pyrimidin-2-yl)-pyridin-2-yl]-amide] |
| 0.1 to 1 µM | COc1cncc2nc(-c3ccnc(Nc4nccs4)c3)nc(N3CCNCC3)c12 [Example 219, [4-(5-Methoxy-4-piperazin-1-yl-pyrido[3,4-d]pyrimidin-2-yl)-pyridin-2-yl]-thiazol-2-yl-amine] |
| < 0.1 µM | COc1cncc2nc(-c3ccnc(Nc4ncco4)c3)nc(N3CCNCC3)c12 [Example 220, [4-(5-Methoxy-4-piperazin-1-yl-pyrido[3,4-d]pyrimidin-2-yl)-pyridin-2-yl]-oxazol-2-yl-amine] |
| < 0.1 µM | COc1cncc2nc(-c3ccnc(Nc4nc(C)co4)c3)nc(N3CCNCC3)c12 [Example 221, [4-(5-Methoxy-4-piperazin-1-yl-pyrido[3,4-d]pyrimidin-2-yl)-pyridin-2-yl]-(4-methyl-oxazol-2-yl)-amine] |
| < 0.1 µM | COc1cncc2nc(-c3ccnc(Nc4ccccc4)c3)nc(N3CCN[C@H](CO)C3)c12 [Example 222, {(S)-4-[5-Methoxy-2-(2-phenylamino-pyridin-4-yl)-pyrido[3,4-d]pyrimidin-4-yl]-piperazin-2-yl}-methanol] |
| 1 to 10 µM | COc1cncc2nc(-c3ccnc(Nc4ccccc4)c3)nc(N3CCC(C)(O)CC3)c12 [Example 223, 1-[5-Mcthoxy-2-(2-phenylamino-pyridin-4-yl)-pyrido[3,4-d]pyrimidin-4-yl]-4-methyl-piperidin-4-ol] |
| < 0.1 µM | COc1cncc2nc(-c3ccnc(Nc4ccccc4)c3)nc(N3CCN[C@@H](C(C)C)C3)c12 [Example 224, {4-[4-((S)-3-Isopropyl-piperazin-1-yl)-5-methoxy-pyrido[3,4-d]pyrimidin-2-yl]-pyridin-2-yl}-phenyl-amine] |
| 0.1 to 1 µM | COc1cncc2nc(-c3ccnc(Nc4ccccc4)c3)nc(N3CCN[C@@H](CCO)C3)c12 [Example 225, 2-{(S)-4-[5-Methoxy-2-(2-phenylamino-pyridin-4-yl)-pyrido[3,4-d]pyrimidin-4-yl]-piperazin-2-yl}-ethanol] |
